Target: KLF4 (Kruppel-Like Factor 4) (Homo sapiens, UniProt O43474)
Test: SPR
Format: binding

KLF4 (Kruppel-Like Factor 4), sequence (O43474 whole entry): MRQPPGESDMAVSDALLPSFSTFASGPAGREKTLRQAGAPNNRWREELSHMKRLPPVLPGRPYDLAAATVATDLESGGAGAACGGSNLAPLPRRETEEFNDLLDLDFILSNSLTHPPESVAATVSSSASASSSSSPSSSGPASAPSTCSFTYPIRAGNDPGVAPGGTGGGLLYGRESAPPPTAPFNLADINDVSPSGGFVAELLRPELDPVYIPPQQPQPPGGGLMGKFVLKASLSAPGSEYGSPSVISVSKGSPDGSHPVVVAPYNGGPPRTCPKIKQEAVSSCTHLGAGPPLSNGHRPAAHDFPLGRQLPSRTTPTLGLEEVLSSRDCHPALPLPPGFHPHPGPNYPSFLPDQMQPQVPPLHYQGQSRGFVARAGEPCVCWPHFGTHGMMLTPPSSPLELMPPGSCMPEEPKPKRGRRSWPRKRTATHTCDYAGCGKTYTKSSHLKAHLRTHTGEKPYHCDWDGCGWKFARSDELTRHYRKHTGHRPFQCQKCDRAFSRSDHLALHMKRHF

Kd: 48.9 µM
Structure (SMILES): C[C@@H]1O[C@@H](O[C@H]2C(=O)c3c(O)cc(O)cc3O[C@@H]2c2ccc(O)c(O)c2)[C@H](O)[C@H](O)[C@H]1O [Astilbin]

Source: publication PMC11566621 (Stem Cell Research & Therapy, 2024)
